This is an account of results in patent US20040081655A1, “Methods and compositions comprising polycationic compounds” (priority 2001, published 2004).

One series concerns TNF-a and IL-6. Put plainly: BCG/CpG-ODN-induced systemic production of TNF-a and IL-6 in vivo, serum ELISA (Example 8). On the set-up: species or system Mice C57Bl/6. As to conditions: BCG vaccine and CpG-ODN co-injected with poly-L-arginine; serum one hour after injection. On the procedure:
Mice were injected subcutaneously into the flank with a total volume of 100 μl, containing the above mentioned compounds. One hour after injection blood was taken from the tail-vein and serum was prepared. The amount of the pro-inflammatory cytokines TNF-a and IL-6 in the sera was determined by cytokine-specific ELISAs according to the manufacturer's instructions (R&D Systems, Inc., Minneapolis, Minn.).

For series [1], the system named is CD11c+ sorted BM-DC. Put plainly: CpG-ODN-induced production of TNF-α and IL-6 by murine BM-DC in vitro, poly-L-arginine (Example 5). Type of series: cell-based, C57Bl/6 mice. As to conditions: 24 h. The method, then:
(§1) Murine dendritic cells (DC) were generated from bone-marrow precursor cells of C57Bl/6 mice as previously described (Inaba 1992). Briefly, bone marrow cells were obtained by flushing the femurs and tibias with medium. Cells were depleted of lymphocytes, granulocytes and MHC class II^+cells by Ab-complement-mediated lysis. Dead cells were removed by Ficoll gradient (Ficoll Separating Solution, density […]; Biochrom KG, Germany). The remaining cells (1×10^6/ml) were cultured in 24-well culture plates in high glucose DMEM medium (PAA Laboratories GmbH, Linz, Austria; E 15-009) supplemented with 10% heat-inactivated FCS, 10. mM sodium pyruvate, 2 mM L-glutamine, […] gentamicin, 0.5 mM 2-mercaptoethanol (all supplements from PAA Laboratories GmbH, Linz, Austria), 20 ng/ml GM-CSF and 250 U/ml IL-4. On day 3 of culture, cells were fed with fresh medium. On day 6 of culture, non-adherent cells and loosely adherent aggregates were harvested, washed and re-plated in 6-well culture plates (2×10^6/5 ml). After additional 1 day of culture, non-adherent cells were collected for analyses. […] For in vitro-stimulations, day 7-cultured bone marrow cells were further enriched for CD11c^+ cells (=DC) using magnetic beads (Miltenyi, Bergisch-Gladbach, Germany). The purity of BM-DC was more than 95% as determined by flow cytometry analyses. […] Supernatants were harvested after 24 h and analysed for the production of TNF-α and IL-6 using specific ELISAs.

The test system of a further series is TNF-α and IL-6. The series is described as follows: CpG-ODN-induced systemic production of TNF-α and IL-6 in vivo, serum ELISA (Example 4). More on the design: species or system Mice C57Bl/6. The following applies: for production of IL-6 in serum after injection / production of TNF-α in serum after injection: one hour after injection into hind footpads, ELISA. On the procedure:
Mice were injected into each hind footpad with a total volume of 100 μl (50 μl per footpad), containing the above mentioned compounds. One hour after injection blood was taken from the tail-vein and serum was prepared. The amount of the pro-inflammatory cytokines TNF-α and IL-6 in the sera was determined by cytokine-specific ELISAs according to the manufacturer's instructions (R&D Systems, Inc., Minneapolis, Minn.).

In a further series the test system is human dendritic cells. Put plainly: LPS-induced production of pro-inflammatory cytokines by human dendritic cells in vitro (Example 10). As to conditions: for LPS-induced production of pro-inflammatory cytokines by human dendritic cells: in vitro, mode of incubation not specified; for production of IL-6 by human dendritic cells / production of TNF-a by human dendritic cells: substance alone (LPS 5 ng/ml; pR60 10 μg/ml; KLK 16, 8 μg/ml; pK 10 μg/ml), culture medium 12 h then substance 12 h.

The test system of series [2] is human monocyte-derived DC. The series is described as follows: Poly I:C-induced production of pro-inflammatory cytokines by human DC in vitro (Example 6). Type of series: cell-based. The following applies: for poly I:C-induced production of pro-inflammatory cytokines by human DC: poly I:C and pR60 together, in vitro; for production of IL-6 by human DC / production of TNF-α by human DC / production of IL-12/p70 by human DC: substance alone, 10 μg/ml, supernatant ELISA. The method, then: Human DC were generated from monocytes.
To determine, which cytokines are induced/produced by DC upon poly I:C and/or pR stimulation, DC were incubated with different stimuli for 12 and 24 hours, supernatants were harvested, stored at −20° C. and screened for the presence of respective cytokines by specific ELISAs.

Series [3] relates to murine bone-marrow-derived dendritic cells. Put plainly: LPS-induced production of pro-inflammatory cytokines by murine bone-marrow-derived dendritic cells in vitro (Example 9). In kind it is cell-based, C57Bl/6 mice. On the procedure:
Murine dendritic cells (DC) were generated from bone-marrow precursor cells of C57Bl/6 mice as previously described (Inaba 1992). Briefly, bone marrow cells were obtained by flushing the femurs and tibias with medium. Cells were depleted of lymphocytes, granulocytes and MHC class II^+cells by Ab-complement-mediated lysis. Dead cells were removed by Ficoll gradient (Ficoll Separating Solution, density […]; Biochrom KG, Germany). The remaining cells (1×10^6/ml) were cultured in 24-well culture plates in high glucose DMEM medium (PAA Laboratories GmbH, Linz, Austria; E 15-009) supplemented with 10% heat-inactivated FCS, 10. mM sodium pyruvate, 2 mM L-glutamine, […] gentamicin, 0.5 mM 2-mercaptoethanol (all supplements from PAA Laboratories GmbH, Linz, Austria), 20 ng/ml GM-CSF and 250 U/ml IL-4. On day 3 of culture, cells were fed with fresh medium. On day 6 of culture, non-adherent cells and loosely adherent aggregates were harvested, washed and re-plated in 6-well culture plates (2×10^6/5 ml). After additional 1 day of culture, non-adherent cells were collected for analyses. […] For in vitro-stimulations, day 7-cultured bone marrow cells were further enriched for CD11c^+ cells (=DC) using magnetic beads (Miltenyi, Bergisch-Gladbach, Germany). The purity of BM-DC was more than 95% as determined by flow cytometry analyses.
Murine dendritic cells (DC) were generated from bone-marrow precursor cells of C57Bl/6 mice as described in example 5.

The test system of series [4] is CD11c+ sorted BM-DC. Put plainly: CpG-ODN-induced production of TNF-α and IL-6 by murine BM-DC in vitro, KLK (Example 7). In kind it is cell-based, C57B1/6 mice. As to conditions: 24 h. The method, then: as §1
Murine dendritic cells (DC) were generated from bone-marrow precursor cells of C57B1/6 mice as described in example 5.

[5] abbreviates: mixture of CpG-ODN 1668 (1 nmol/ml) and poly-L-arginine (10 μg/ml).
Where [6] appears, read: substance alone (poly-L-arginine 10 μg/ml; CpG-ODN 1668 1 nmol/ml), supernatant ELISA.
Setting [7] is: poly-L-arginine co-injected with OVA257-264-peptide and CpG-ODN, serum one hour after injection.
Where [8] appears, read: cells pre-incubated with polycationic compound 12 h, then LPS 12 h.
The mark [9] stands for this setting: mixture of LPS and polycationic compound, 12 h.
Where [10] appears, read: mixture of pIC (10 μg/ml) and pR (10 μg/ml), 12 and 24 hours.
The mark [11] stands for this setting: cells pre-incubated with poly-L-arginine 12 h, then LPS 12 h.
[12] abbreviates: mixture of LPS/poly-L-arginine, 12 h.
Setting [13] is: substance alone (LPS 10 ng/ml; pR60 10 μg/ml), culture medium 12 h then substance 12 h.
Where [14] appears, read: mixture of CpG-ODN 1668 (0.5 nmol/ml) and KLK (16, 8 μg/ml).
Where [15] appears, read: substance alone (KLK 16, 8 μg/ml; CpG-ODN 1668 0.5 nmol/ml), supernatant ELISA.

“Also recorded” adds a separate entry of the source.

Method for human dendritic cells: Human DC were generated from monocytes. Briefly, peripheral blood leukocytes (PBLs) were isolated from buffy coats of healthy volunteers by Ficoll gradient centrifugation. Monocytes were isolated from PBLs using CD14-coated magnetic beads (Miltenyi Biotec Inc., Germany) applied according to the manufacturer's instructions. Using this method, we obtained >95% CD14^+ cells as determined by flow cytometry. These CD14^+ monocytes were cultured in RPMI 1640 medium supplemented with 10% FCS (PAA Laboratories, Linz, Austria), non-essential aminoacids, L-glutamin, gentamicin, sodium pyruvate, 100 ng/ml human GM-CSF and 500 U/ml human IL-4 in 6-well tissue plates for 6-7 days. To this end, the cultures contained >80%. MHC class II^+/CD1a^+ cells (=DC).
Human dendritic cells (DC) were generated as described in example 6. For in vitro-stimulations, day 7-cultured dendritic cells were incubated for 12 h with the indicated compounds. After centrifugation, supernatant was removed, cells were washed once with medium, then fresh medium with the indicated compounds was added, and the cells were incubated for additional 12 h. Supernatants were harvested and analyzed for the production of TNF-a and IL-6 using specific ELISAs.

As for Poly-L-Arginine, in the series on TNF-a and IL-6, the “BCG/CpG-ODN-induced systemic production of IL-6” value is recorded as “inhibited; also recorded: prevents” and the “BCG/CpG-ODN-induced systemic production of TNF-a” value was “inhibited; also recorded: prevents”. Moreover, in the series on CD11c+ sorted BM-DC [1] (setting [5]), the “CpG-ODN 1668-induced production of IL-6 by murine BM-DC” value is listed as “inhibited; also recorded: abrogates” and the “CpG-ODN 1668-induced production of TNF-α by murine BM-DC” value was “inhibited; also recorded: abrogates”. In the series on CD11c+ sorted BM-DC [1] (setting [6]), the “production of IL-6 by murine BM-DC” value is recorded as “could not detect any; also recorded: neither TNF-α nor IL-6 were detectable” and the “production of TNF-α by murine BM-DC” value is reported as “could not detect any; also recorded: neither TNF-α nor IL-6 were detectable”. Moreover, in the series on TNF-α and IL-6 (setting [7]), the “CpG-ODN-induced systemic production of IL-6” value is “inhibited; also recorded: prevents; also recorded: totally abolished” and the “CpG-ODN-induced systemic production of TNF-α” value is on record as “inhibited; also recorded: prevents; also recorded: totally abolished”. In the series on human dendritic cells (setting [8]), the “LPS-induced production of IL-6 by human dendritic cells” value is “inhibited” and the “LPS-induced production of TNF-a by human dendritic cells” value is reported as “inhibited”. In the series with human dendritic cells, the “LPS-induced production of pro-inflammatory cytokines by human dendritic cells” value was “decrease”, the “production of IL-6 by human dendritic cells” value is “could not detect any” and the “production of TNF-a by human dendritic cells” value is given as “could not detect any”. Further, in the series on human dendritic cells (setting [9]), the “LPS-induced production of IL-6 by human dendritic cells” value is “inhibited” and the “LPS-induced production of TNF-a by human dendritic cells” value was “inhibited”. Also, in series [2] (setting [10]), the “poly I:C-induced IL-6 production by human DC” value was “inhibited” and the “poly I:C-induced TNF-α production by human DC” value is recorded as “inhibited”. In series [2], the “poly I:C-induced production of pro-inflammatory cytokines by human DC” value is recorded as “abrogates; also recorded: inhibits” and the “production of IL-12/p70 by human DC” value is on record as “could not detect any”. The “poly I:C-induced production of pro-inflammatory cytokines by human DC” value in series [2] (listed as pR) is listed as “can be inhibited”. In addition, in series [2] (12 and 24 hours), the “production of IL-6 by human DC” value is on record as “could not detect any” and the “production of TNF-α by human DC” value is listed as “could not detect any”. Also, in series [3] (setting [11]), the “LPS-induced production of IL-6 by murine BM-DC” value is recorded as “inhibited” and the “LPS-induced production of TNF-a by murine BM-DC” value was “inhibited”. Further, the “LPS-induced production of pro-inflammatory cytokines by murine bone-marrow-derived dendritic cells” value in series [3] (in vitro, mode of incubation not specified) was “decrease”. Further, in series [3] (setting [12]), the “LPS-induced production of IL-6 by murine BM-DC” value is reported as “inhibited” and the “LPS-induced production of TNF-a by murine BM-DC” value is “inhibited”. In series [3] (setting [13]), the “production of IL-6 by murine BM-DC” value is “could not detect any” and the “production of TNF-a by murine BM-DC” value is on record as “could not detect any”.
On to KLKLLLLLKLK, for which, in the series on CD11c+ sorted BM-DC [4] (setting [14]), the “CpG-ODN 1668-induced production of IL-6 by murine BM-DC” value is listed as “inhibited; also recorded: abrogates” and the “CpG-ODN 1668-induced production of TNF-a by murine BM-DC” value was “inhibited; also recorded: abrogates”. In the series with CD11c+ sorted BM-DC [4] (setting [15]), the “production of IL-6 by murine BM-DC” value is listed as “could not detect any” and the “production of TNF-a by murine BM-DC” value is given as “could not detect any”. In the series on human dendritic cells (setting [8]), the “LPS-induced production of IL-6 by human dendritic cells” value is “inhibited” and the “LPS-induced production of TNF-a by human dendritic cells” value is recorded as “inhibited”. Moreover, in the series with human dendritic cells, the “LPS-induced production of pro-inflammatory cytokines by human dendritic cells” value is recorded as “decrease”, the “production of IL-6 by human dendritic cells” value is “could not detect any” and the “production of TNF-a by human dendritic cells” value is given as “could not detect any”. In the series on human dendritic cells (setting [9]), the “LPS-induced production of IL-6 by human dendritic cells” value is recorded as “inhibited” and the “LPS-induced production of TNF-a by human dendritic cells” value is “inhibited”.
As for “Polyinosinic-polycytidylic acid [poly I:C, reference compound]”, in series [2] (12 and 24 hours), the “production of IL-6 by human DC” value was “triggers the production” and the “production of TNF-α by human DC” value is reported as “triggers the production”. Further, the “production of IL-12/p70 by human DC” value in series [2] is “produced IL-12/p70”.
Take `CC[C@H](C)[C@H](NC(=O)[C@@H](NC(=O)[C@@H](N)CO)[C@@H](C)CC)C(=O)N[C@@H](CC(N)=O)C(=O)N[C@@H](Cc1ccccc1)C(=O)N[C@@H](CCC(=O)O)C(=O)N[C@@H](CCCCN)C(=O)N[C@@H](CC(C)C)C(=O)O` [OVA257-264, reference compound]: in the series with TNF-α and IL-6, the “production of IL-6 in serum after injection” value is “does not-induce the production of detectable amounts” and the “production of TNF-α in serum after injection” value is given as “does not-induce the production of detectable amounts”. Also, in the series with TNF-α and IL-6 (listed as OVA257-264-peptide), the “production of IL-6 in serum after injection” value is given as “neither the injection of OVA257-264-peptide alone nor in combination with poly-L-arginine led to the induction of significant amounts” and the “production of TNF-α in serum after injection” value was “neither the injection of OVA257-264-peptide alone nor in combination with poly-L-arginine led to the induction of significant amounts”.
Regarding Poly-D-lysine Hydrobromide, in the series with human dendritic cells (setting [8]), the “LPS-induced production of IL-6 by human dendritic cells” value was “inhibited” and the “LPS-induced production of TNF-a by human dendritic cells” value is on record as “inhibited”. In addition, in the series on human dendritic cells, the “LPS-induced production of pro-inflammatory cytokines by human dendritic cells” value is on record as “decrease”, the “production of IL-6 by human dendritic cells” value was “could not detect any” and the “production of TNF-a by human dendritic cells” value is listed as “could not detect any”. Moreover, in the series with human dendritic cells (setting [9]), the “LPS-induced production of IL-6 by human dendritic cells” value is “inhibited” and the “LPS-induced production of TNF-a by human dendritic cells” value is recorded as “inhibited”.
